According to ChEMBL document CHEMBL1201862, “PubChem BioAssay data set” (2004):
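Protocol summary: plate cells (96-well), add compound at 5 concentrations, incubate 48 h, interpolate endpoints linearly. Here, GI50 denotes the concentration required for 50% inhibition of growth.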 Active and inactive are the calls of the source. Rule as the data show it: active = GI50 up to about 1.1 µM and inactive = higher.

How the values were obtained:
Test in all cases: growth of human tumour cells (NCI), 48 h
[1] = system: NCI-H23
[2] = system: UACC-257
[3] = system: RPMI-8226
[4] = system: HL-60
[5] = system: CCRF-CEM
[6] = system: ACHN
[7] = system: HOP-62
[8] = system: MDA-N
[9] = system: SF-295
[10] = system: IGROV-1
[11] = system: SF-539
[12] = system: SK-MEL-28
[13] = system: UO-31
[14] = system: LOX IMVI
[15] = system: U-251
[16] = system: OVCAR-8
[17] = system: SNB-75
[18] = system: NCI/ADR-RES
[19] = system: NCI-H522
[20] = system: HT-29
[21] = system: SW-620
[22] = system: OVCAR-4
[23] = system: UACC-62
[24] = system: CAKI-1
[25] = system: A498
[26] = system: SF-268
[27] = system: NCI-H460
[28] = system: EKVX
[29] = system: BT-549
[30] = system: NCI-H226
[31] = system: HCT-15
[32] = system: TK-10
[33] = system: MDA-MB-435
[34] = system: MCF7
[35] = system: OVCAR-5
[36] = system: HCC 2998
[37] = system: COLO 205
[38] = system: DU-145
[39] = system: RXF 393
[40] = system: SN12C
[41] = system: PC-3
[42] = system: SNB-19
[43] = system: T47D
[44] = system: SK-MEL-2
[45] = system: SK-OV-3
[46] = system: 786-0
[47] = system: OVCAR-3
[48] = system: Malme-3M
[49] = system: KM12
[50] = system: A549
[51] = system: MDA-MB-231
[52] = system: SR
[53] = system: HCT-116
[54] = system: K562
[55] = system: MOLT-4
[56] = system: M14
[57] = system: SK-MEL-5
[58] = system: HOP-92

## Cn1cc(C[C@@H](N)C(=O)O)c2ccccc21 [INDOXIMOD]
[1]
  GI50: > 100 µM (inactive)
[2]
  GI50: > 100 µM (inactive)
[3]
  GI50: > 100 µM (inactive)
[4]
  GI50: > 100 µM (inactive)
[5]
  GI50: > 100 µM (inactive)
[6]
  GI50: > 100 µM (inactive)
[7]
  GI50: > 100 µM (inactive)
[8]
  GI50: > 100 µM (inactive)
[9]
  GI50: > 100 µM (inactive)
[10]
  GI50: > 100 µM (inactive)
[11]
  GI50: > 100 µM (inactive)
[12]
  GI50: > 100 µM (inactive)
[13]
  GI50: > 100 µM (inactive)
[14]
  GI50: > 100 µM (inactive)
[15]
  GI50: > 100 µM (inactive)
[16]
  GI50: > 100 µM (inactive)
[17]
  GI50: > 100 µM (inactive)
[18]
  GI50: > 100 µM (inactive)
[19]
  GI50: > 100 µM (inactive)
[20]
  GI50: > 100 µM (inactive)
[21]
  GI50: > 100 µM (inactive)
[22]
  GI50: > 100 µM (inactive)
[23]
  GI50: > 100 µM (inactive)
[24]
  GI50: > 100 µM (inactive)
[25]
  GI50: > 100 µM (inactive)
[26]
  GI50: > 100 µM (inactive)
[27]
  GI50: > 100 µM (inactive)
[28]
  GI50: > 100 µM (inactive)
[29]
  GI50: > 100 µM (inactive)
[30]
  GI50: > 100 µM (inactive)
[31]
  GI50: > 100 µM
[32]
  GI50: > 100 µM (inactive)
[33]
  GI50: > 100 µM (inactive)
[34]
  GI50: > 100 µM (inactive)
[35]
  GI50: > 100 µM (inactive)
[36]
  GI50: > 100 µM (inactive)
[37]
  GI50: > 100 µM (inactive)
[38]
  GI50: > 100 µM (inactive)
[39]
  GI50: 20 µM (inactive)
[40]
  GI50: > 100 µM (inactive)
[41]
  GI50: > 100 µM (inactive)
[42]
  GI50: > 100 µM (inactive)
[43]
  GI50: > 100 µM (inactive)
[44]
  GI50: > 100 µM (inactive)
[45]
  GI50: > 100 µM (inactive)
[46]
  GI50: > 100 µM (inactive)
[47]
  GI50: > 100 µM (inactive)
[48]
  GI50: > 100 µM (inactive)
[49]
  GI50: > 100 µM (inactive)
[50]
  GI50: > 100 µM (inactive)
[51]
  GI50: > 100 µM (inactive)
[52]
  GI50: > 100 µM (inactive)
[53]
  GI50: > 100 µM (inactive)
[54]
  GI50: > 100 µM (inactive)
[55]
  GI50: > 100 µM (inactive)
[56]
  GI50: > 100 µM (inactive)

## COC(=O)C1(C(=O)OC)N=C(C)OC1/C=C/c1ccccc1 (stereo not drawn)
[57]
  GI50: > 100 µM (inactive)
[1]
  GI50: > 100 µM (inactive)
[2]
  GI50: > 100 µM (inactive)
[3]
  GI50: 38 µM (inactive)
[4]
  GI50: > 100 µM (inactive)
[5]
  GI50: 75.3 µM (inactive)
[6]
  GI50: > 100 µM (inactive)
[7]
  GI50: > 100 µM (inactive)
[8]
  GI50: > 100 µM (inactive)
[9]
  GI50: > 100 µM (inactive)
[10]
  GI50: > 100 µM (inactive)
[12]
  GI50: > 100 µM (inactive)
[13]
  GI50: > 100 µM (inactive)
[14]
  GI50: > 100 µM (inactive)
[15]
  GI50: > 100 µM (inactive)
[16]
  GI50: > 100 µM (inactive)
[17]
  GI50: > 100 µM (inactive)
[18]
  GI50: > 100 µM (inactive)
[21]
  GI50: > 100 µM (inactive)
[22]
  GI50: > 100 µM (inactive)
[23]
  GI50: > 100 µM (inactive)
[24]
  GI50: > 100 µM (inactive)
[25]
  GI50: > 100 µM (inactive)
[27]
  GI50: > 100 µM (inactive)
[28]
  GI50: > 100 µM (inactive)
[58]
  GI50: > 100 µM (inactive)
[29]
  GI50: > 100 µM (inactive)
[30]
  GI50: > 100 µM (inactive)
[31]
  GI50: > 100 µM
[32]
  GI50: > 100 µM (inactive)
[33]
  GI50: > 100 µM (inactive)
[34]
  GI50: > 100 µM (inactive)
[35]
  GI50: > 100 µM (inactive)
[36]
  GI50: > 100 µM (inactive)
[37]
  GI50: > 100 µM (inactive)
[38]
  GI50: > 100 µM (inactive)
[39]
  GI50: > 100 µM (inactive)
[40]
  GI50: > 100 µM (inactive)
[41]
  GI50: > 100 µM (inactive)
[42]
  GI50: > 100 µM (inactive)
[43]
  GI50: > 100 µM (inactive)
[44]
  GI50: > 100 µM (inactive)
[45]
  GI50: > 100 µM (inactive)
[46]
  GI50: > 100 µM (inactive)
[47]
  GI50: > 100 µM (inactive)
[49]
  GI50: > 100 µM (inactive)
[50]
  GI50: > 100 µM (inactive)
[52]
  GI50: > 100 µM (inactive)
[53]
  GI50: > 100 µM (inactive)
[54]
  GI50: > 100 µM (inactive)
[55]
  GI50: > 100 µM (inactive)
[56]
  GI50: > 100 µM (inactive)

## S=c1oc(CCCCCCCCc2nn(CNc3ccc(Cl)cc3)c(=S)o2)nn1CNc1ccc(Cl)cc1
[57]
  GI50: 3.27 µM (inactive)
[1]
  GI50: 99.3 µM (inactive)
[2]
  GI50: 40 µM (inactive)
[3]
  GI50: 6.78 µM (inactive)
[6]
  GI50: 72.3 µM (inactive)
[7]
  GI50: 7.52 µM (inactive)
[8]
  GI50: 43.4 µM (inactive)
[9]
  GI50: 4.92 µM (inactive)
[10]
  GI50: > 100 µM (inactive)
[12]
  GI50: 20.3 µM (inactive)
[13]
  GI50: 97.3 µM (inactive)
[15]
  GI50: > 100 µM (inactive)
[17]
  GI50: > 100 µM (inactive)
[18]
  GI50: > 100 µM (inactive)
[19]
  GI50: > 100 µM (inactive)
[20]
  GI50: > 100 µM (inactive)
[21]
  GI50: > 100 µM (inactive)
[22]
  GI50: > 100 µM (inactive)
[23]
  GI50: 3.88 µM (inactive)
[24]
  GI50: 33.8 µM (inactive)
[25]
  GI50: > 100 µM (inactive)
[26]
  GI50: > 100 µM (inactive)
[27]
  GI50: > 100 µM (inactive)
[28]
  GI50: > 100 µM (inactive)
[58]
  GI50: > 100 µM (inactive)
[29]
  GI50: > 100 µM (inactive)
[30]
  GI50: > 100 µM (inactive)
[31]
  GI50: > 100 µM
[32]
  GI50: > 100 µM (inactive)
[33]
  GI50: 10.4 µM (inactive)
[34]
  GI50: > 100 µM (inactive)
[35]
  GI50: 60.5 µM (inactive)
[36]
  GI50: > 100 µM (inactive)
[37]
  GI50: 7.38 µM (inactive)
[38]
  GI50: > 100 µM (inactive)
[39]
  GI50: > 100 µM (inactive)
[40]
  GI50: > 100 µM (inactive)
[41]
  GI50: 29.3 µM (inactive)
[42]
  GI50: > 100 µM (inactive)
[44]
  GI50: > 100 µM (inactive)
[45]
  GI50: > 100 µM (inactive)
[46]
  GI50: > 100 µM (inactive)
[48]
  GI50: > 100 µM (inactive)
[49]
  GI50: 35.8 µM (inactive)
[50]
  GI50: > 100 µM (inactive)
[51]
  GI50: > 100 µM (inactive)
[53]
  GI50: > 100 µM (inactive)
[54]
  GI50: 6.89 µM (inactive)
[55]
  GI50: > 100 µM (inactive)
[56]
  GI50: 12 µM (inactive)
